Values joined by “and” are separate entries in the source; they are usually repeats but may differ in a detail not shown here. Equal entries are not always repeated. Where two headings read alike, the source gives them in different places.
Target: T1, LSD1-HDAC1-CoREST complex (Homo sapiens, UniProt O60341)
T1 construct: full length native LSD1 (UniProt ID: O60341); made in house; host or cells: HEK 293F cells (co-transfection, pcDNA3 vectors)
Assay: LSD1 HRP-coupled demethylase assay, SP2509/SP2577 analogues
Assay type: biochemical
Protocol: The analogues synthesised were then tested for their ability to inhibit LSD1 using purified LSD1-HDAC1-CoREST complex (Fig. 2B). We used an established fluorescent read out horseradish peroxidase (HRP) assay to monitor LSD1 enzymatic activity in the CoREST complex[8] (see ESI ^† for full details).
2. Supplementary Information: Biology
2.1. LSD-HDAC1-CoREST expression and purification
Lysis Buffer (Buffer A) Wash Buffer (Buffer B)
• 50 mM Tris/Cl pH 7.5 • 50 mM Tris/Cl pH 7.5
• 50 mM Potassium Acetate • 50 mM Potassium Acetate […]
Cleavage Buffer (Buffer C) Gel Filtration Buffer (Buffer D)
• 50 mM Tris/Cl pH 7.5 Filtered at vacuum.
• 50 mM Potassium Acetate • 50 mM Tris/Cl pH 7.5
• 5 % v/v Glycerol • 50 mM Potassium Acetate
• 0.5 mM tris(2- • 0.5 mM TCEP carboxyethyl)phosphine (TCEP)
The CoREST ternary complex was comprised of full length native LSD1 (UniProt ID: O60341), full length HDAC1 (UniProt ID: Q13547) and N-terminally truncated RCOR1 (86-485aa) (UniProt ID:
Q9UKL0). Protein constructs were cloned into pcDNA3 vector. The RCOR1 constructs contained an N-terminal (His)10(Flag)3 tag followed by a Tev protease cleavage site. The constructs for ternary complex were co-transfected into suspension-grow HEK 293F cells (Thermofisher Scientific) with polyethylenimine (PEI) (Sigma) and harvested after 48 hours. This section of the procedure was carried out as described previously in literature.11,12
Cell pellets from 1.2 L culture were defrosted, and buffer A (30 mL) was added. The solution was sonicated (Soniprep 150) in an beaker of ice using a 9 mm probe at 10 ampules; operated with 10 […]
2.2. SP2509/SP2577 analogues LSD1 HRP-coupled demethylase assay protocol The commercial reagents for the assay were HRP and Amplex® Ultrared, which are available to purchase from ThermoFisher (31490) and Invitrogen (10737474), respectively. HRP was made up to 8 mg/mL stock solution in 1xPBS buffer, divided into 10 µL aliquots, snap-frozen in liquid nitrogen and stored at -80 °C. Amplex® Ultrared was made up to 10 mM solution in DMSO, divided into 20 µL aliquots and wrapped in foil, away from light and stored at -20 °C. For each assay experiment, CoREST complex was diluted to 500 nM in assay buffer (20 mM HEPES pH 7.5 and 50 mM NaCl).
HRP was defrosted by diluting each aliquot in 90 µL 1xPBS solution, making a 0.8 mg/mL solution.
Amplex® Ultrared was made up to 200 µM in assay buffer. HRP and Amplex® Ultrared were pre-mixed before addition to the plate. H3K4Me2 substrate (4 mM in deionised water) was diluted to 300 µM in assay buffer. All stocks were stored on ice during assay preparation.
The assay was carried out using a ‘black well’ 96 well plate (Corning no. 3915) in a reaction volume of 100 μL. The final concentrations in the assay were as follows: 50 nM CoREST complex, 10 μM Amplex® UltraRed, 0.04 mg/mL HRP and 15 μM H3K4Me2 peptide substrate. The final DMSO concentration in each well was 1.1 %. Three wells of each experiments were designated ‘background controls’ and contained 85 μL assay buffer, premixed Amplex® UltraRed and HRP (10 µL) and H3K4Me peptide substrate (300 μM, 5 µL).
A stock solution of inhibitor (1 -5 mM in DMSO) was subjected to an inhibitor dilution series, in Eppendorf tubes, in 100 % DMSO. Each new inhibitor stock (4 μL) was diluted in assay buffer (1 in 75) within a new Eppendorf set with assay buffer (20 mM HEPES pH 7.5 and 50 m M NaCl), ensuring the percentage of DMSO was consistent throughout the series. To each well of interest, Inhibitor in assay buffer (75 μL) was added, and CoREST complex (500 nM, 10 µL) was added thereafter. The plate was placed on a rocker and pre -incubated for 30 mins. To each well, premixed Amplex® UltraRed and HRP (10 µL) was added before H3K4Me 2 peptide substrate in assay buffer solution (300 μM, 5 µL) was added to the wall of the plate. The plate was covered in foil and spun down for one minute before being placed in the plate reader. The final percentage concentration of DMSO in […]

## C/C(=N\NC(=O)c1cccc(S(=O)(=O)N2CCOCC2)c1)c1cc(Cl)ccc1O [SP2509, reference compound]
LSD1 enzymatic activity, complex 50 nM, HRP assay, SP2509 value is mean of three sets, read-out: LSD1-HDAC1-CoREST IC50
  IC50: 54.2 nM
Per parallel set, each set with SP2509 as reference standard, read-out: IC50 from dose response curves (Figure S1)
  IC50: 52 nM and 56 nM and 55 nM

Source: paper PMC12323867 (RSC Medicinal Chemistry, 2025)
